Data published in patent US5933819A, “Prediction of relative binding motifs of biologically active peptides and peptide mimetics” (The Scripps Research Institute, priority 1997, dated 1999).
Read-outs that look alike come from different tables or passages of the source. Where no end group is shown, it is not given here.

Tests used:
[1] = target: T1, K^b on the surface of K^b transfected drosophila cells (Mus musculus, UniProt P01901); test: FACS analysis of stabilization of cell surface K^b by peptides; format: cell-based
T1 construct: expressed in transfected cells; host or cells: Drosophila cells transfected with K^b
T1 sequence (P01901 22-369): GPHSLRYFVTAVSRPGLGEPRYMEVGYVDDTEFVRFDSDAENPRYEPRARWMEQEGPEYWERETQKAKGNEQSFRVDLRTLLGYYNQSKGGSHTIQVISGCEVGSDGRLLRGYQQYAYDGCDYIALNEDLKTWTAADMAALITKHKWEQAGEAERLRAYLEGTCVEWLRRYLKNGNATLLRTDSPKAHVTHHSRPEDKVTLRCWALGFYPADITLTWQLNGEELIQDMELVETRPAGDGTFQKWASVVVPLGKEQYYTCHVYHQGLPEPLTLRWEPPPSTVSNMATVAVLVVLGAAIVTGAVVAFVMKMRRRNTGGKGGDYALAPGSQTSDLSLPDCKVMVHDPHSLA
T1 sequence (P01887 21-119 partner): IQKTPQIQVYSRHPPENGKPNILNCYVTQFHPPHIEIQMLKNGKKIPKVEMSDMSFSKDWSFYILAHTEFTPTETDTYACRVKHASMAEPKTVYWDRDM
Procedure: FACS Analysis. Values from fluorescence activated cell sorter (FACS) analysis showing the relative amounts of K^b on the surface of K^b transfected drosophila cells following an 18-hour incubation with the indicated peptides. […] Median fluorescence values from separate experiments were normalized by subtracting the median fluorescence obtained in the absence of added peptides from each peptide sample and then expressing those values as the percent of the fluorescence obtained with […] (which was examined in all experiments). Peptide binding was also analyzed by the ability to stabilize cell surface K^b molecules. Empty class I molecules are thermolabile, but they can be stabilized by binding appropriate peptides. Peptides were bound to K^b molecules expressed on the surfaces of K^b transfected Drosophila cells. Their relative binding strengths are indicated by their median fluorescence.

K^b [2] = target: T2, K^b (Mus musculus, UniProt P01901); conditions: known immunodominant epitope, characterized previously; read-out: KD (dissociation constant); cited from earlier work
T2 construct: Soluble K^b was purified from transfected Drosophila cells; made in house; host or cells: transfected Drosophila cells
T2 sequence (P01901 22-305 limits assumed): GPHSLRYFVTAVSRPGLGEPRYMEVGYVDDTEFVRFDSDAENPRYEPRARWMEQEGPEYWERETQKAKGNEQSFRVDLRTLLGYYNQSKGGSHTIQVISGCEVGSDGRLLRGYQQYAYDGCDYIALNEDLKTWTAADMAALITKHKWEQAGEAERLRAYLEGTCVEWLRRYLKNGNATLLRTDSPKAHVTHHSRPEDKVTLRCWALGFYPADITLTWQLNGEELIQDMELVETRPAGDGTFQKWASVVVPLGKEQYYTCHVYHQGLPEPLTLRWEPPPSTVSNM
T2 sequence (P01887 21-119 partner): T1 sequence (P01887 21-119 partner)

K^b [3] = target: T2, K^b; test: biochemical; format: binding
[4] = 18-hour incubation with peptide, 23° C., antibody Y3, median fluorescence normalized to SIINFEKL
[5] = read-out: KD (dissociation constant)

Compound | FACS Analysis % SIINFEKL (relative amount of K^b on cell surface) [1, 4] | Kd (K^b [2]) | Kd (K^b [3]) | Kd (K^b [3]; [5]) | FACS Analysis % SIINFEKL (relative amount of K^b on cell surface) [1]
CC[C@H](C)[C@H](NC(=O)[C@@H](NC(=O)[C@@H](N)CO)[C@@H](C)CC)C(=O)N[C@@H](CC(N)=O)C(=O)N[C@@H](Cc1ccccc1)C(=O)N[C@@H](CCC(=O)O)C(=O)N[C@@H](CCCCN)C(=O)N[C@@H](CC(C)C)C(=O)O [Peptide 1, reference compound] | 100 % SIINFEKL | 3 nM |  |  | 
AEERYPIL [Peptide 3] | 42 % SIINFEKL |  | 67000 nM |  | 
ASEKMKIL [Peptide 9] | 4 % SIINFEKL |  | 550000 nM |  | 
DHPFLFCI [Peptide 10] | 38 % SIINFEKL |  | 47000 nM |  | 
DVYSFSLA [Peptide 7] | 65 % SIINFEKL |  | 70 nM |  | 
ENIFYCPI [Peptide 11] |  |  |  | 94 nM | 77
GTMSMLVL [Peptide 8] | 0 % SIINFEKL |  | 1200 nM |  | 
KVVRFDKL [Peptide 5] | 94 % SIINFEKL |  | 26 nM |  | 
NAIVFKGL [Peptide 4] | 76 % SIINFEKL |  | 13 nM |  | 
RGDKLPGFG [Peptide 6] | 30 % SIINFEKL |  | 550000 nM |  | 
RGYVYQGL [VSV8, reference compound] |  |  |  | 4.1 nM | 
SALAMVYL [Peptide 2] | 100 % SIINFEKL |  | 7.1 nM |  | 
